Assay results published in US10780090B2, “Heteroaryl compounds useful as inhibitors of SUMO activating enzyme” (Millennium Pharmaceuticals, Inc., priority 2014, dated 2020).
Like-named read-outs stand apart in the source and are kept apart here.

Target: recombinant human SAE enzyme (Homo sapiens (Human), UniProt Q9UBT2)
Assay: SAE HTRF enzyme assay
Assay type: biochemical
Conditions: for inhibition at 0.111 µM: read-out: Percent Inhibition
Outline: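 Human SAE (0.11 nM) with 0.5 μM ATP, 0.125 μM Sumo-Flag and 0.01 μM Ubc9-GST in HEPES pH 7.5, 5 mM MgCl2, 250 μM GSH; 105 min at 24 °C. Stopped with EDTA; HTRF read after 2 h with Eu-anti-Flag and APC-anti-GST. Percent inhibition or IC50 reported.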

[1] = SAE inhibition at compound concentration 0.111 μM
[2] = SAE inhibition, class symbols, legend in nM

Chain of recombinant human SAE enzyme (Q9UBT2 whole entry): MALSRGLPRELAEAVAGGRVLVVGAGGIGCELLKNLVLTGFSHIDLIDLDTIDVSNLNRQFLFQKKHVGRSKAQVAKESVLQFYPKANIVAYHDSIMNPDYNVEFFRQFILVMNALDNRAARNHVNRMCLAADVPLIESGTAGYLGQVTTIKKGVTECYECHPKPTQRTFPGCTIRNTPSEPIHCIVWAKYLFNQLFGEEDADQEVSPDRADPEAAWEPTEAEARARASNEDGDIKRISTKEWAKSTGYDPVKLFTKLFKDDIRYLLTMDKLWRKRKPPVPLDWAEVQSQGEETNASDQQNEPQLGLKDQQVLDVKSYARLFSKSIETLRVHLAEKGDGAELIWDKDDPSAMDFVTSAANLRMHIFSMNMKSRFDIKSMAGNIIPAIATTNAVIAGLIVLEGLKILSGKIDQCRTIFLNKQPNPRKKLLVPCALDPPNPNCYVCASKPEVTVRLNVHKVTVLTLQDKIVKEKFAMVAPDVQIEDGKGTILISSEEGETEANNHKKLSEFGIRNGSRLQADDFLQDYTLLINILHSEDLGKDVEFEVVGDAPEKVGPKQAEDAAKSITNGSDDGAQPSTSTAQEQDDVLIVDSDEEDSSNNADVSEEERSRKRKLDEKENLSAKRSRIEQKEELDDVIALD
Chain of recombinant human SAE enzyme (Q9UBE0 whole entry partner): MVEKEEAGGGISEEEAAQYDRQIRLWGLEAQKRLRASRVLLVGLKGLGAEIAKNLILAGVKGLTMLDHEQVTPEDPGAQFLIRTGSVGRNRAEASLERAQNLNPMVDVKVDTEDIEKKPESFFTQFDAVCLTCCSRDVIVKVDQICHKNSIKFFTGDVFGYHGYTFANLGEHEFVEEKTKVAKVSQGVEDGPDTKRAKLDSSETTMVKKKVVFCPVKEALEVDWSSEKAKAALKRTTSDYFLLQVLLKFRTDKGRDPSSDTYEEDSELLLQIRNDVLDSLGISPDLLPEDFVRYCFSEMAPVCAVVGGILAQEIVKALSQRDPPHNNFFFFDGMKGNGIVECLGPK

Row | Compound | Percent Inhibition (Concentration 0.111 μM) | IC50 (class symbols A/B/C) [nM] | inhibition at 0.111 µM (Concentration 0.111 μM) [%] | other results
1 | NS(=O)(=O)OC[C@H]1C[C@@H](Nc2ncncc2C(=O)c2cc(Cl)c([C@H](O)c3cccc(Cl)c3)s2)C[C@@H]1O (single isomer, unassigned) [I-151b, [(1R,2S,4R)-4-{[5-({4-chloro-5-[(R)-(3-chlorophenyl)(hydroxy)methyl]-2-thienyl}carbonyl)pyrimidin-4-yl]amino}-2-hydroxycyclopentyl]methyl sulfamate or [(1R,2S,4R)-4-{[5-({4-chloro-5-[(S)-(3-chlorophenyl)(hydroxy)methyl]-2-thienyl}carbonyl)pyrimidin-4-yl]amino}-2-hydroxycyclopentyl]methyl sulfamate] | 93 | < 10 |  | 
2 | CC(=O)c1csc(C(=O)c2cncnc2N[C@@H]2C[C@H](COS(N)(=O)=O)[C@@H](O)C2)c1 [I-229, [(1R,2S,4R)-4-{(5-[(4-Acetyl-2-thienyl)carbonyl]pyrimidin-4-yl}amino)-2-hydroxycyclopentyl]methyl sulfamate] |  | 100 to 1000 | 25 | 
3 | Cc1sc(C(=O)c2cncnc2N[C@@H]2C[C@H](COS(N)(=O)=O)[C@@H](O)C2)cc1[C@@H]1OCCn2c1nc1ccccc12 (mixture of isomers) [I-344, [(1R,2S,4R)-4-{[5-({4-[(1S)-3,4-dihydro-1H-[1,4]oxazino[4,3-a]benzimidazol-1-yl]-5-methyl-2-thienyl}carbonyl)pyrimidin-4-yl]amino}-2-hydroxycyclopentyl]methyl sulfamate and [(1R,2S,4R)-4-{[5-({4-[(1R)-3,4-dihydro-1H-[1,4]oxazino[4,3-a]benzimidazol-1-yl]-5-methyl-2-thienyl}carbonyl)pyrimidin-4-yl]amino}-2-hydroxycyclopentyl]methyl sulfamate] |  |  |  | Percent Inhibition [1]: 99%; IC50 [2]: < 10 nM
4 | COCc1csc(C(=O)c2cncnc2N[C@@H]2C[C@H](COS(N)(=O)=O)[C@@H](O)C2)c1 [I-217, {(1R,2S,4R)-2-Hydroxy-4-[(5-{[4-(methoxymethyl)-2-thienyl]carbonyl}pyrimidin-4-yl)amino]cyclopentyl}methyl sulfamate] |  | 100 to 1000 | 36 | 
5 | NS(=O)(=O)OC[C@H]1C[C@@H](Nc2ncncc2C(=O)c2cc(C(=O)c3ccccc3)co2)C[C@@H]1O [I-208, [(1R,2S,4R)-4-{[5-(4-benzoyl-2-furoyl)pyrimidin-4-yl]amino}-2-hydroxycyclopentyl]methyl sulfamate] |  | 100 to 1000 | 46 | 
6 | NS(=O)(=O)OC[C@H]1C[C@@H](Nc2ncncc2C(=O)c2cc([C@H](O)c3cccc(Cl)c3)co2)C[C@@H]1O (single isomer, unassigned) [I-42a, {(1R,2S,4R)-4-[(5-{4-[(R)-(3-chlorophenyl)(hydroxy)methyl]-2-furoyl}pyrimidin-4-yl)amino]-2-hydroxycyclopentyl}methyl sulfamate or {(1R,2S,4R)-4-[(5-{4-[(S)-(3-chlorophenyl)(hydroxy)methyl]-2-furoyl}pyrimidin-4-yl)amino]-2-hydroxycyclopentyl}methyl sulfamate] | 97 | < 10 |  | 
7 | Cc1oc(C(=O)c2cncnc2N[C@@H]2C[C@H](COS(N)(=O)=O)[C@@H](O)C2)cc1[C@@H]1OCCc2ccc(Cl)cc21 (mixture of isomers) [I-270, {(1R,2S,4R)-4-[(5-{4-[(1R)-7-chloro-3,4-dihydro-1H-isochromen-1-yl]-5-methyl-2-furoyl}pyrimidin-4-yl)amino]-2-hydroxycyclopentyl}methyl sulfamate and {(1R,2S,4R)-4-[(5-{4-[(1S)-7-chloro-3,4-dihydro-1H-isochromen-1-yl]-5-methyl-2-furoyl}pyrimidin-4-yl)amino]-2-hydroxycyclopentyl}methyl sulfamate] | 99 | < 10 |  | 
8 | N[C@H](c1cccc(Cl)c1)c1csc(C(=O)c2cncnc2N[C@@H]2C[C@H](COS(N)(=O)=O)[C@@H](O)C2)c1 (single isomer, unassigned) [I-36b, [(1R,2S,4R)-4-{[5-({4-[(R)-amino(3-chlorophenyl)methyl]-2-thienyl}carbonyl)pyrimidin-4-yl]amino}-2-hydroxycyclopentyl]methyl sulfamate or [(1R,2S,4R)-4-{[5-({4-[(S)-amino(3-chlorophenyl)methyl]-2-thienyl}carbonyl)pyrimidin-4-yl]amino}-2-hydroxycyclopentyl]methyl sulfamate] | 99 | < 10 |  | 
9 | Cc1sc(C(=O)c2cncnc2N[C@@H]2C[C@H](COS(N)(=O)=O)[C@@H](O)[C@@H]2F)cc1[C@H]1OCCc2ccc(Cl)cc21 (single isomer, unassigned) [I-264a, [(1R,2R,3R,4R)-4-{[5-({4-[(1S)-7-chloro-3,4-dihydro-1H-isochromen-1-yl]-5-methyl-2-thienyl}carbonyl)pyrimidin-4-yl]amino}-3-fluoro-2-hydroxycyclopentyl]methyl sulfamate or [(1R,2R,3R,4R)-4-{[5-({4-[(1R)-7-chloro-3,4-dihydro-1H-isochromen-1-yl]-5-methyl-2-thienyl}carbonyl)pyrimidin-4-yl]amino}-3-fluoro-2-hydroxycyclopentyl]methyl sulfamate] | 33 | 100 to 1000 |  | 
10 | Cc1sc(C(=O)c2cncnc2N[C@@H]2C[C@H](COS(N)(=O)=O)[C@@H](O)C2)cc1[C@@H]1OCCc2ccc(Cl)nc21 (single isomer, unassigned) [I-286a, [(1R,2S,4R)-4-{[5-({4-[(8S)-2-chloro-5,8-dihydro-6H-pyrano[3,4-b]pyridin-8-yl]-5-methyl-2-thienyl}carbonyl)pyrimidin-4-yl]amino}-2-hydroxycyclopentyl]methyl sulfamate or [(1R,2S,4R)-4-{[5-({4-[(8R)-2-chloro-5,8-dihydro-6H-pyrano[3,4-b]pyridin-8-yl]-5-methyl-2-thienyl}carbonyl)pyrimidin-4-yl]amino}-2-hydroxycyclopentyl]methyl sulfamate] |  |  |  | Percent Inhibition [1]: 39%; IC50 [2]: 100 to 1000 nM
11 | Cc1cc2n(n1)CCO[C@H]2c1csc(C(=O)c2cncnc2N[C@@H]2C[C@H](COS(N)(=O)=O)[C@@H](O)C2)c1 (mixture of isomers) [I-332, [(1R,2S,4R)-2-hydroxy-4-{[5-({4-[(4S)-2-methyl-6,7-dihydro-4H-pyrazolo[5,1-c][1,4]oxazin-4-yl]-2-thienyl}carbonyl)pyrimidin-4-yl]amino}cyclopentyl]methyl sulfamate and [(1R,2S,4R)-2-hydroxy-4-{[5-({4-[(4R)-2-methyl-6,7-dihydro-4H-pyrazolo[5,1-c][1,4]oxazin-4-yl]-2-thienyl}carbonyl)pyrimidin-4-yl]amino}cyclopentyl]methyl sulfamate] |  |  |  | Percent Inhibition [1]: 25%; IC50 [2]: 100 to 1000 nM
12 | NS(=O)(=O)OC[C@H]1C[C@@H](Nc2ncncc2C(=O)c2cc(CCc3cccc(Cl)c3)cs2)C[C@@H]1O [I-146, [(1R,2S,4R)-4-{[5-({4-[2-(3-chlorophenyl)ethyl]-2-thienyl}carbonyl)pyrimidin-4-yl]amino}-2-hydroxycyclopentyl]methyl sulfamate] |  | < 10 | 94 | 
13 | COc1cccc(Cc2csc(C(=O)c3cncnc3N[C@@H]3C[C@H](COS(N)(=O)=O)[C@@H](O)C3)c2)c1 [I-123, {(1R,2S,4R)-2-hydroxy-4-[(5-{[4-(3-methoxybenzyl)-2-thienyl]carbonyl}pyrimidin-4-yl)amino]cyclopentyl}methyl sulfamate] |  | < 10 | 96 | 
14 | NS(=O)(=O)OC[C@H]1C[C@@H](Nc2ncncc2C(=O)c2cc([C@@H]3OCC(F)(F)c4ccc(Cl)cc43)cs2)C[C@@H]1O (single isomer, unassigned) [I-289b, [(1R,2S,4R)-4-{[5-({4-[(1R)-7-chloro-4,4-difluoro-3,4-dihydro-1H-isochromen-1-yl]-2-thienyl}carbonyl)pyrimidin-4-yl]amino}-2-hydroxycyclopentyl]methyl sulfamate or [(1R,2S,4R)-4-{[5-({4-[(1S)-7-chloro-4,4-difluoro-3,4-dihydro-1H-isochromen-1-yl]-2-thienyl}carbonyl)pyrimidin-4-yl]amino}-2-hydroxycyclopentyl]methyl sulfamate] |  |  |  | Percent Inhibition [1]: 99%; IC50 [2]: < 10 nM
15 | C[C@](O)(c1ccccc1)c1coc(C(=O)c2cncnc2N[C@@H]2C[C@H](COS(N)(=O)=O)[C@@H](O)C2)c1 (single isomer, unassigned) [I-58a, {(1R,2S,4R)-2-hydroxy-4-[(5-{4-[(1S)-1-hydroxy-1-phenylethyl]-2-furoyl}pyrimidin-4-yl)amino]cyclopentyl}methyl sulfamate or {(1R,2S,4R)-2-hydroxy-4-[(5-{4-[(1R)-1-hydroxy-1-phenylethyl]-2-furoyl}pyrimidin-4-yl)amino]cyclopentyl}methyl sulfamate] | 87 | 10 to 100 |  | 
16 | NS(=O)(=O)OC[C@H]1C[C@@H](Nc2ncncc2C(=O)c2ncc(Cc3ccccc3)s2)[C@H](O)[C@@H]1O [I-350, [(1R,2R,3S,4R)-4-({5-[(5-benzyl-1,3-thiazol-2-yl)carbonyl]pyrimidin-4-yl}amino)-2,3-dihydroxycyclopentyl]methyl sulfamate] |  |  |  | inhibition at 0.111 µM [1]: 75%; IC50 [2]: 10 to 100 nM
17 | CC(C)(O)c1ccc(C(=O)c2cncnc2N[C@@H]2C[C@H](COS(N)(=O)=O)[C@@H](O)[C@H]2O)s1 [I-202, {(1R,2R,3S,4R)-2,3-dihydroxy-4-[(5-{[5-(2-hydroxypropan-2-yl)-2-thienyl]carbonyl}pyrimidin-4-yl)amino]cyclopentyl}methyl sulfamate] |  | 10 to 100 | 60 | 
18 | Cc1ccc(Cc2csc(C(=O)c3cncnc3N[C@@H]3C[C@H](COS(N)(=O)=O)[C@@H](O)C3)c2)o1 [I-237, [(1R,2S,4R)-2-Hydroxy-4-{[5-({4-[(5-methyl-2-furyl)methyl]-2-thienyl}carbonyl)pyrimidin-4-yl]amino}cyclopentyl]methyl sulfamate] |  | 100 to 1000 | 25 | 
